ChEMBL document CHEMBL2424529, “Nonpeptidic propargylamines as inhibitors of lysine specific demethylase 1 (LSD1) with cellular activity” (J Med Chem, 2013)
pIC50: −log10 of the molar value. One block for each molecule: values may come before it.

Legend:
[1] = target: T1, Amine oxidase [flavin-containing] B (Homo sapiens, UniProt P27338); settings: 1 h, read-out: INH
T1 sequence (P27338 whole entry): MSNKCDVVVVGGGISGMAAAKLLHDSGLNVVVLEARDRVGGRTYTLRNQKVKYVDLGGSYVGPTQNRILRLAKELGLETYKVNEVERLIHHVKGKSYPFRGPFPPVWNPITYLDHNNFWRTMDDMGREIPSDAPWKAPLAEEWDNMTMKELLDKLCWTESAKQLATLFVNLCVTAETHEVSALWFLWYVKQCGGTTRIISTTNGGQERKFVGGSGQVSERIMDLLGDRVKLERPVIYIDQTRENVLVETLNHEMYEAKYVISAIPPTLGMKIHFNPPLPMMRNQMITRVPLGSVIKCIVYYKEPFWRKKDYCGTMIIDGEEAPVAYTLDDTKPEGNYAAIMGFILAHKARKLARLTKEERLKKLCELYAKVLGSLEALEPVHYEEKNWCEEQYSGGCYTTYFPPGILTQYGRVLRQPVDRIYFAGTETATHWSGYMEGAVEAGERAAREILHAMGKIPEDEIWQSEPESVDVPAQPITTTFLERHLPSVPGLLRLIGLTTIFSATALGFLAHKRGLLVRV
Description: Inhibition of MAOB (unknown origin) using kynuramine as substrate at 10 uM after 1 hr by fluorescence assay relative to control

[2] = target: T2, Amine oxidase [flavin-containing] A (Homo sapiens, UniProt P21397); settings: 1 h, read-out: INH
T2 sequence (P21397 whole entry): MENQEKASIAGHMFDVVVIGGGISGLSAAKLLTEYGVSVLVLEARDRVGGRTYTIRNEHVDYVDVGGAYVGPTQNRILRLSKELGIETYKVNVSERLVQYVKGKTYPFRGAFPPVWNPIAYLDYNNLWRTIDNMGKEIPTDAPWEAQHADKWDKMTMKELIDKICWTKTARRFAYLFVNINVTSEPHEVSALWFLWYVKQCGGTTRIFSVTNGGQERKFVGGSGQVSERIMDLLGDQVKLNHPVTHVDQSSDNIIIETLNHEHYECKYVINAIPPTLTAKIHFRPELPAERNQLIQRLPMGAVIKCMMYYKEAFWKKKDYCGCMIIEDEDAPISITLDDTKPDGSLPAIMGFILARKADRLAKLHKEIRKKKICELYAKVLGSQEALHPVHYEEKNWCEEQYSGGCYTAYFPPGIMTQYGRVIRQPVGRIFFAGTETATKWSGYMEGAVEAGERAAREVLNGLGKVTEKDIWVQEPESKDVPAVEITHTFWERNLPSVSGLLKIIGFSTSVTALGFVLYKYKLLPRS
Description: Inhibition of MAOA (unknown origin) using kynuramine as substrate at 10 uM after 1 hr by fluorescence assay relative to control

[3] = target: T1, Amine oxidase [flavin-containing] B; settings: 1 h, read-out: INH; remark: listed apart in the source
Description: Inhibition of MAOB (unknown origin) using kynuramine as substrate at 100 uM after 1 hr by fluorescence assay relative to control

[4] = target: T2, Amine oxidase [flavin-containing] A; settings: 1 h, read-out: INH; remark: listed apart in the source
Description: Inhibition of MAOA (unknown origin) using kynuramine as substrate at 100 uM after 1 hr by fluorescence assay relative to control

[5] = target: T3, Lysine-specific histone demethylase 1A (Homo sapiens, UniProt O60341); assay: biochemical; type: cell-based, Sf9
Description: Inhibition of LSD1 (unknown origin) expressed in Sf9 cells using H3K4(me2) as substrate preincubated for 30 mins prior to substrate addition measured after 90 mins by horseradish peroxidase assay

[6] = target: T1, Amine oxidase [flavin-containing] B; assay: Inhibition of MAOB (unknown origin) using kynuramine as substrate after 1 hr by fluorescence assay
[7] = target: T2, Amine oxidase [flavin-containing] A; assay: Inhibition of MAOA (unknown origin) using kynuramine as substrate after 1 hr by fluorescence assay
[8] = target: T1, Amine oxidase [flavin-containing] B; settings: 1 h, read-out: INH; remark: listed apart in the source
Description: Inhibition of MAOB (unknown origin) using kynuramine as substrate at 500 uM after 1 hr by fluorescence assay relative to control

[9] = target: T3, Lysine-specific histone demethylase 1A; assay: Inhibition of LSD1 (unknown origin) expressed in Sf9 cells using H3K4(me2) as substrate at 200 uM preincubated for 30 mins prior to substrate addition measured after 90 mins by horseradish peroxidase assay relative to control

SMILES: C#CCN(C)CC(O)COc1ccc2ccccc2c1 (stereo unspecified)
- inhibition at 10 µM [1]: 29%

SMILES: C#CCNCCCOc1cccc(NC(=O)c2ccccc2)c1
- inhibition at 10 µM [2]: 62%

SMILES: OC(CNC1CC1)COc1ccccc1-c1ccccc1 (stereo unspecified)
- inhibition at 100 µM [3]: 45%

SMILES: OC(CNC1CC1)COc1ccc2cc(Br)ccc2c1 (stereo unspecified)
- inhibition at 10 µM [1]: 100%
- inhibition at 10 µM [2]: 100%
- pIC50 [5]: 3.95

SMILES: C#CCNCC(O)COc1ccc2ccccc2c1 (stereo unspecified)
- inhibition at 10 µM [1]: 19%
- inhibition at 10 µM [2]: 65%

SMILES: C#CCN(C)CC(O)COc1ccc2cc(Br)ccc2c1 (stereo unspecified)
- inhibition at 10 µM [1]: 100%

SMILES: C#CCN(C)CC(O)COc1cccc2ccccc12 (stereo unspecified)
- inhibition at 100 µM [3]: 32%

SMILES: OC(CNC1CC1)COc1ccc2ccccc2c1 (stereo unspecified)
- inhibition at 10 µM [1]: 94%

SMILES: C#CCNCCCOc1cccc(C(=O)NC(C)C)c1
- pIC50 [6]: 4.77
- inhibition at 100 µM [4]: 100%

SMILES: C#CCN(C)CC(O)COc1ccc(-c2ccccc2)cc1 (stereo unspecified)
- inhibition at 10 µM [1]: 100%

SMILES: C#CCN(C)CC(O)COc1ccccc1-c1ccccc1 (stereo unspecified)
- inhibition at 100 µM [3]: 30%

SMILES: OC(CNC1CC1)COc1ccc(-c2ccccc2)cc1 (stereo unspecified)
- inhibition at 10 µM [1]: 100%
- inhibition at 10 µM [2]: 100%

Continued, values first:

- inhibition at 100 µM [4]: 36%
SMILES: C#CCN(C)CCCC[C@H](NC(=O)OCc1ccccc1)C(=O)OCc1ccccc1

- pIC50 [6]: 5.24
SMILES: C#CCNCCCOc1cccc(C(=O)NCc2ccccc2)c1

- pIC50 [6]: 7.22
- pIC50 [7]: 6.26
SMILES: C#CCNCC(O)COc1ccc(-c2ccccc2)cc1 (stereo unspecified)

- inhibition at 100 µM [4]: 45%
- pIC50 [5]: 3.88
- inhibition at 500 µM [8]: 51%
SMILES: CC#CCNCCCC[C@H](NC(=O)c1ccccc1)C(=O)OC(C)(C)C

- pIC50 [6]: 7.00
- inhibition at 10 µM [2]: 73%
SMILES: C#CCN(C)CCCOc1cccc(NC(=O)c2ccccc2)c1

- pIC50 [5]: 3.84
SMILES: C#CCNCCCC[C@H](NC(=O)c1ccccc1)C(=O)OC(C)(C)C

- inhibition at 10 µM [2]: 5%
- inhibition [9]: 36.3%
- inhibition at 100 µM [3]: 27%
SMILES: C#CCNCC(O)COc1ccccc1-c1ccccc1 (stereo unspecified)

- inhibition at 500 µM [8]: 67%
SMILES: C#CCNCCCC[C@H](NC(=O)OCc1ccccc1)C(=O)OCc1ccccc1
